Data set [1] is described as follows: Stability of antibiotic in aqueous solution. The following applies: hydrate salt in water. It is filed as physicochemical.
Data set [2] in a line: Solubility of antibiotic (water, lipoid). It is filed as physicochemical.

Take Doxycycline hyclate: the “stability of water soluble salt” value in data set [1] was “no pH sensitivity or breakdown into the inactive ingredients”. In data set [2], the lipoid solubility result was “high degree of lipoid solubility” and the solubility in water result is reported as “readily soluble in water”.

These data come from patent US6544502B2, “Skin treatment with a water soluble antibiotic dissolved in an electrolyzed water” (Wasatch Pharmaceutical Inc., priority 1992, dated 2003).
